Article PMC7582905, “Effect of Disulfide Cyclization of Ultrashort Cationic Lipopeptides on Antimicrobial Activity and Cytotoxicity” (International Journal of Molecular Sciences, 2020)
In brackets after ≈: the same amount, converted by molar mass. Where two headings read alike, the source gives them in different places. Where a SMILES comes first, the peptide text is derived from it. Bridges are numbered along the chain shown (N, C = ends). The star is where a group is joined. Palmitoyl = CCCCCCCCCCCCCCCC(=O)*

Key:
[1] = RP-HPLC determination of peptide hydrophobicity; assay type: physicochemical; conditions: 0.1% TFA; for reduced retention time t’R: RP-HPLC retention as measure of hydrophobicity, Waters X-Bridge Shield RP-18 3.0 × 100 mm, 3.5 μm, linear 20–65% acetonitrile in water over 30 min, 0.5 mL/min, 25.0 °C, UV 214 nm, 1 g/L, triplicate; for ∆tR: tR of cyclic analog − tR of parent lipopeptide, RP-HPLC, RP-18, 20–65% acetonitrile over 30 min
Method: The peptides were analyzed by RP-HPLC to determine relative hydrophobicity vs. retention time of each compound. In general, more hydrophobic lipopeptides will elute later than hydrophilic ones. Using this simple rule enables comparison of hydrophobicity by reduced retention times (t’R) and differences in retention time between the cyclic analog and its linear parent lipopeptide (Table 1). It can be deduced that the presence of cystine moiety has led to increased hydrophobicity. All cyclic lipopeptides are more hydrophobic than their linear counterparts but the effect of disulfide cyclization on retention is different in each pair. The highest increase in retention was noticed for the shortest lipopeptides L1 (C16-KKK-NH2) and C1 (C16-CKKKC-NH2). The differences between lipopeptides with one arginine residue indicate that its position is crucial for retention and therefore hydrophobicity. To learn how the arginine position affects hydrophobicity, the retention time of compound L2 (C16-KKKK-NH2) or C2 (C16-CKKKKC-NH2) was subtracted from that of the lipopeptides with one arginine residue, linear (L3, L4, L5, L6) or cyclic (C3, C4, C5, C6), respectively. In Figure 2 the effect of arginine position on retention time is related to unsubstituted lipopeptide.
To determine peptide hydrophobicity, a Waters Alliance e2695 system with a Waters 2998 PDA Detector (software-Empower 3, Waters, Milford, MA, USA) was used. All analyses were carried out on a Waters X-Bridge Shield RP-18 column (3.0 × 100 mm, 3.5 μm particle size, 130 Å pore size). The Shield Technology column with embedded polar groups was used to minimize interactions of unreacted silanol groups with basic lipopeptides. The peptides were dissolved in water (0.1% TFA, v/v) up to a concentration of 1 g/L. UV detection at 214 nm was used, and samples (10 μL) were eluted with a linear 20–65% acetonitrile gradient in deionized water over 30 min at 25.0 ± 0.1 °C. The mobile phase flow rate was 0.5 mL/min. Both eluents contained 0.1% (v/v) of TFA. Each peptide sample was analyzed in triplicate. Maximum standard deviation and coefficient of variation were 0.042 and 0.25%, respectively.

[2] = system: Staphylococcus epidermidis ATCC 14990; assay type: cell-based
Method: (§1) The Staphylococcus aureus ATCC 25923, Staphylococcus epidermidis ATCC 14990, Escherichia coli ATCC 25922, Pseudomonas aeruginosa ATCC 9027, Candida albicans ATCC 10231, Candida glabrata ATCC 15126, Candida lipolytica PCM 2680-FY, and Candida tropicalis PCM 2709-FY strains were acquired from the Polish Collection of Microorganisms (PCM, Polish Academy of Sciences, Wrocław, Poland) and from the American Type Culture Collection (ATCC). All the strains were stored at −80 °C in Roti-Store cryo vials and before the tests were transferred into fresh Mueller–Hinton broth (MHB, Biocorp, Warsaw, Poland) for bacteria or RPMI-1640 (Sigma-Aldrich, Steinheim, Germany) for fungi and incubated for 24 h at 37 °C. Then, the cultures were seeded on Mueller–Hinton agar (BioMaxima, Lublin, Poland) or Sabouraud dextrose agar (SDA, BioMaxima, Lublin, Poland) plates, respectively, and incubated as just mentioned. These agar cultures were used for further microbiological assays. Cell densities for all assays were adjusted spectrophotometrically (Multiskan GO Microplate Spectrophotometer, Thermo Fisher Scientific, Vantaa, Finland) at 600 and 660 nm for bacteria and fungi, respectively.
(§2) MBECs were determined on 96-well polystyrene flat-bottom plates. For this purpose, 24 h cultures of microorganisms were diluted to obtain final density 5.0 × 10^5 CFU/mL and 2.0 × 10^5 CFU/mL of bacteria and fungi, respectively. Briefly, 100 µL of cell suspension was added into the test plates. After 24 h of incubation at 37 °C the wells were rinsed three times with a phosphate buffer saline (PBS, pH 7.4) to remove non-adherent cells. Subsequently, 100 μL of the test compounds in concentration range (0.5–256 μg/mL) were added to each well. After 24 h of incubation at 37 °C, 20 μL of a cell viability reagent was added (resazurin, 4 g/L; Sigma Aldrich, St. Louis, MO, USA). The MBEC was read after 1 h. The determined values were recorded as the lowest concentration at which the reduction of resazurin (from blue to pink) was lower or equal to 10 ± 0.5% as compared to the positive (100%) and negative (0%) controls. The reduction was monitored by measuring absorbance at 570 nm (reduced) and 600 nm (oxidized) using a microplate spectrophotometer (Multiskan GO Microplate Spectrophotometer, Thermo Fisher Scientific, Vantaa, Finland). All experiments were conducted in triplicate.

[3] = system: Candida tropicalis PCM 2709-FY; assay type: cell-based
Method: as §1, §2

[4] = system: Candida lipolytica PCM 2680-FY; assay type: cell-based
Method: as §1, §2

[5] = system: Candida albicans ATCC 10231; assay type: cell-based
Method: as §1, §2

[6] = system: Escherichia coli ATCC 25922; assay type: cell-based
Method: as §1, §2

[7] = system: Pseudomonas aeruginosa ATCC 9027; assay type: cell-based
Method: as §1, §2

[8] = system: Candida glabrata ATCC 15126; assay type: cell-based
Method: as §1, §2

[9] = system: Candida tropicalis PCM 2709-FY; assay type: cell-based; conditions: 24 h
Method: as §1
(§3) The MICs were determined by broth microdilution method according to the Clinical and Laboratory Standard Institute guidelines For this purpose, initial inoculums of bacteria (5 × 10^5 CFU/mL) in MHB and yeasts (2 × 10^3 CFU/mL) in RPMI-1640 with 2% D-glucose were exposed to the ranging concentration of lipopeptides (0.5–256 μg/mL) and incubated at 37 °C for 18 h and 24 h, respectively. The experiments were conducted on 96-well microtiter polystyrene plates. The growth was assessed visually after incubation and the MIC was assumed as the lowest peptide concentration at which a noticeable growth of microorganisms was inhibited. All experiments were conducted in triplicate.

[10] = system: Candida lipolytica PCM 2680-FY; assay type: cell-based; conditions: 24 h
Method: as §1, §3

[11] = system: Escherichia coli ATCC 25922; assay type: cell-based; remark: listed apart in the source
Method: as §1, §3

[12] = system: Candida glabrata ATCC 15126; assay type: cell-based; remark: listed apart in the source
Method: as §1, §3

[13] = 24 h biofilm on polystyrene plates, 24 h exposure at 37 °C, resazurin, triplicate
[14] = broth microdilution (CLSI), RPMI-1640 with 2% D-glucose, 2 × 10^3 CFU/mL, 37 °C, visual, triplicate

SMILES: CCCCCCCCCCCCCCCC(=O)N[C@H]1CSSC[C@@H](C(N)=O)NC(=O)[C@H](CCCCN)NC(=O)[C@H](CCCCN)NC(=O)[C@H](CCCCN)NC(=O)[C@H](CCCCN)NC1=O [C2, C16-CKKKKC-NH2] (Palmitoyl-CKKKKC-NH2; disulfide 1-6)
- reduced retention time t’R [1]: 15.95 min
- ∆tR [1]: +1.18 min
- MBEC S. epidermidis [2, 13]: 32 µg/mL
- MBEC C. tropicalis [3, 13]: 32 µg/mL
- MBEC C. lipolytica [4, 13]: 16 µg/mL
- MBEC C. albicans [5, 13]: 64 µg/mL
- MBEC E. coli [6, 13]: 64 µg/mL
- MBEC P. aeruginosa [7, 13]: > 256 µg/mL
- MBEC C. glabrata [8, 13]: 64 µg/mL
- MIC C. tropicalis [9, 14]: 2 µg/mL (≈ 2.06 µM)
- MIC C. lipolytica [10, 14]: 2 µg/mL (≈ 2.06 µM)
- MIC E. coli ([11]; broth microdilution (CLSI), MHB, 5 × 10^5 CFU/mL, 37 °C, 18 h, visual, triplicate): 64 µg/mL (≈ 65.8 µM)
- MIC C. glabrata ([12]; broth microdilution (CLSI), RPMI-1640 with 2% D-glucose, 2 × 10^3 CFU/mL, 37 °C, 24 h, visual, triplicate): 4 µg/mL (≈ 4.11 µM)

SMILES: CCCCCCCCCCCCCCCC(=O)N[C@H]1CSSC[C@@H](C(N)=O)NC(=O)[C@H](CCCCN)NC(=O)[C@H](CCCCN)NC(=O)[C@H](CCCNC(=N)N)NC(=O)[C@H](CCCNC(=N)N)NC1=O [C7, C16-CRRKKC-NH2] (Palmitoyl-CRRKKC-NH2; disulfide 1-6)
- reduced retention time t’R [1]: 16.83 min
- ∆tR [1]: +1.25 min
- MBEC S. epidermidis ([2]; ATCC 14990, 24 h): 64 µg/mL
- MBEC C. tropicalis ([3]; PCM 2709-FY, 24 h): 32 µg/mL
- MBEC C. lipolytica ([4]; 24 h): 16 µg/mL
- MBEC C. albicans ([5]; ATCC 10231, 24 h): 64 µg/mL
- MBEC E. coli ([6]; ATCC 25922, 24 h): 256 µg/mL
- MBEC P. aeruginosa ([7]; ATCC 9027, 24 h): 256 µg/mL
- MBEC C. glabrata ([8]; ATCC 15126, 24 h): 64 µg/mL
- MIC C. tropicalis ([9]; PCM 2709-FY): 4 µg/mL (≈ 3.89 µM)
- MIC C. lipolytica [10]: 4 µg/mL (≈ 3.89 µM)
- MIC E. coli ([11]; ATCC 25922, 18 h): 16 µg/mL (≈ 15.6 µM)
- MIC C. glabrata ([12]; ATCC 15126, 24 h): 4 µg/mL (≈ 3.89 µM)

SMILES: CCCCCCCCCCCCCCCC(=O)N[C@H]1CSSC[C@@H](C(N)=O)NC(=O)[C@H](CCCCN)NC(=O)[C@H](CCCCN)NC(=O)[C@H](CCCCN)NC(=O)[C@H](CCCNC(=N)N)NC1=O [C3, C16-CRKKKC-NH2] (Palmitoyl-CRKKKC-NH2; disulfide 1-6)
- reduced retention time t’R [1]: 16.51 min
- ∆tR [1]: +1.30 min
- MBEC S. epidermidis ([2]; ATCC 14990, 24 h): 128 µg/mL
- MBEC C. tropicalis ([3]; PCM 2709-FY, 24 h): 32 µg/mL
- MBEC C. lipolytica ([4]; 24 h): 16 µg/mL
- MBEC C. albicans ([5]; ATCC 10231, 24 h): 32 µg/mL
- MBEC E. coli ([6]; ATCC 25922, 24 h): 256 µg/mL
- MBEC P. aeruginosa ([7]; ATCC 9027, 24 h): 256 µg/mL
- MBEC C. glabrata ([8]; ATCC 15126, 24 h): 32 µg/mL
- MIC C. tropicalis ([9]; PCM 2709-FY): 2 µg/mL (≈ 2 µM)
- MIC C. lipolytica [10]: 4 µg/mL (≈ 4 µM)
- MIC E. coli ([11]; ATCC 25922, 18 h): 16 µg/mL (≈ 16 µM)
- MIC C. glabrata ([12]; ATCC 15126, 24 h): 8 µg/mL (≈ 8 µM)

SMILES: CCCCCCCCCCCCCCCC(=O)N[C@@H](CCCCN)C(=O)N[C@@H](CCCCN)C(=O)N[C@@H](CCCCN)C(=O)N[C@@H](CCCNC(=N)N)C(N)=O [L6, C16-KKKR-NH2] (Palmitoyl-KKKR-NH2)
- reduced retention time t’R [1]: 14.89 min
- MBEC S. epidermidis ([2]; ATCC 14990, 24 h): 32 µg/mL
- MBEC C. tropicalis ([3]; PCM 2709-FY, 24 h): 128 µg/mL
- MBEC C. lipolytica ([4]; 24 h): 32 µg/mL
- MBEC C. albicans ([5]; ATCC 10231, 24 h): 128 µg/mL
- MBEC E. coli ([6]; ATCC 25922, 24 h): 256 µg/mL
- MBEC P. aeruginosa ([7]; ATCC 9027, 24 h): 256 µg/mL
- MBEC C. glabrata ([8]; ATCC 15126, 24 h): 128 µg/mL
- MIC C. tropicalis ([9]; PCM 2709-FY): 8 µg/mL (≈ 10 µM)
- MIC C. lipolytica [10]: 8 µg/mL (≈ 10 µM)
- MIC E. coli ([11]; ATCC 25922, 18 h): 8 µg/mL (≈ 10 µM)
- MIC C. glabrata ([12]; ATCC 15126, 24 h): 64 µg/mL (≈ 80.4 µM)

SMILES: CCCCCCCCCCCCCCCC(=O)N[C@H]1CSSC[C@@H](C(N)=O)NC(=O)[C@H](CCCCN)NC(=O)[C@H](CCCNC(=N)N)NC(=O)[C@H](CCCCN)NC(=O)[C@H](CCCCN)NC1=O [C5, C16-CKKRKC-NH2] (Palmitoyl-CKKRKC-NH2; disulfide 1-6)
- reduced retention time t’R [1]: 16.16 min
- ∆tR [1]: +1.15 min
- MBEC S. epidermidis ([2]; ATCC 14990, 24 h): 64 µg/mL
- MBEC C. tropicalis ([3]; PCM 2709-FY, 24 h): 32 µg/mL
- MBEC C. lipolytica ([4]; 24 h): 16 µg/mL
- MBEC C. albicans ([5]; ATCC 10231, 24 h): 64 µg/mL
- MBEC E. coli ([6]; ATCC 25922, 24 h): 128 µg/mL
- MBEC P. aeruginosa ([7]; ATCC 9027, 24 h): 256 µg/mL
- MBEC C. glabrata ([8]; ATCC 15126, 24 h): 64 µg/mL
- MIC C. tropicalis ([9]; PCM 2709-FY): 4 µg/mL (≈ 4 µM)
- MIC C. lipolytica [10]: 4 µg/mL (≈ 4 µM)
- MIC E. coli ([11]; ATCC 25922, 18 h): 16 µg/mL (≈ 16 µM)
- MIC C. glabrata ([12]; ATCC 15126, 24 h): 8 µg/mL (≈ 8 µM)
